In US9890176B2, “Mannose derivatives for treating bacterial infections” (Vertex Pharmaceuticals Incorporated, priority 2013, dated 2018):

Columns and labels:
[1] = system: bacterial strain LF82 binding to the glycoprotein BSA-(Mannose)3; experiment: Bacterial Binding Assay (BBA); assay type: cell-based, Escherichia coli; conditions: read-out: Bacterial Binding Assay IC50
Summary of the method: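 Luciferase-tagged E. coli LF82 grown overnight at 37° C without shaking, then added at 2×10^8 bacteria/mL (10^7 per well) to wells coated with 0.5-2 μg/mL BSA-(Man)3 and blocked with 2% BSA. Compound in 0.2% BSA/D-PBS; binding 40-75 min at room temperature. Washed; bound bacteria read by luciferase luminescence; IC50.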

[2] = target: T1, carbohydrate recognition domain of the protein FimH (M1-T179) (Escherichia coli, UniProt P08191); experiment: Thermal Shift Assay; assay type: binding, E. coli; conditions: 5.6 μM protein, 56 μM ligand; DMSO control as reference; ± standard error of the mean (number of repeats)
T1 construct: domain of the protein FimH (M1-T179) with an uncleavable C-terminus 6-His tag; made in house; host or cells: E. coli (pET21b plasmid)
Description: The carbohydrate recognition domain of the protein FimH (M1-T179) with an uncleavable C-terminus 6-His tag is cloned in a pET21b plasmid and expressed in E. coli and purified to homogeneity. The thermal stabilization of the protein upon ligand binding is measured in a 96-well format on a ViiA™ 7 (Life Technologies, Carlsbad, Calif.) RT-PCR instrument. The assay is conducted in duplicate in 20 mM Tris pH 7.4 and 150 mM NaCl at a final concentration of 5.6 μM and 56 μM for protein and ligand, respectively. An environmentally-sensitive dye (Applied Biosystems Protein Thermal Shift™ Dye (P/N 4461141)) is added to each well to a final ratio of 1:1000. Plates are spun at 1000×g for 1 minute and incubated at room temperature for 10 minutes. Thermal stability of protein with and without ligand is measured from 45° C. to 85° C. at a scan rate of 0.05° C./sec. The resulting data is analyzed using Protein Thermal Shift™ Software (version 1.1) with DMSO control used as reference.

T1 sequence (P08191 22-179 limits assumed): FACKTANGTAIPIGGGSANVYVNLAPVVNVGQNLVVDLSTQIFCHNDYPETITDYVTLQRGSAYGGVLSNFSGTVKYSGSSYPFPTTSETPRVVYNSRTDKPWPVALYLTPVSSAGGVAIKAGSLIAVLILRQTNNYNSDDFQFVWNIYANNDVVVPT

SMILES	IC50 [1]	Delta Thermal melt [2]
CNC(=O)c1cccc(-c2ccc(O[C@H]3O[C@H](CO)[C@@H](O)[C@H](O)[C@@H]3F)cc2)c1 [Example 7, 3-[4-[(2R,3S,4S,5S,6R)-3-fluoro-4,5-dihydroxy-6-(hydroxymethyl)tetrahydropyran-2-yl]oxyphenyl]-N-methyl-benzamide]	8620 ± 1300 nM	3.86 ± 0.09 (2) ° C.
CNC(=O)c1cccc(-c2ccc(O[C@H]3O[C@H](CO)[C@@H](O)[C@H](O)[C@]3(C)O)c(C)c2)c1 [Example 13, N,3′-dimethyl-4′-(((2R,3S,4S,5S,6R)-3,4,5-trihydroxy-6-(hydroxymethyl)-3-methyltetrahydro-2H-pyran-2-yl)oxy)-[1,1′-biphenyl]-3-carboxamide]	15 ± 2 nM	10.71 ± 0 (2) ° C.
COC(=O)c1cc(C(=O)OC)cc(-c2ccc(O[C@H]3O[C@H](CO)[C@@H](O)[C@H](O)[C@@H]3F)cc2)c1 [Example 9, Dimethyl 5-[4-[(2R,3S,4S,5S,6R)-3-fluoro-4,5-dihydroxy-6-(hydroxymethyl)tetrahydropyran-2-yl]oxyphenyl]benzene-1,3-dicarboxylate]		4.39 ± 0.11 (2) ° C.
OC[C@H]1O[C@H](Oc2ccc(Br)cc2C(F)(F)F)[C@@H](F)[C@@H](O)[C@@H]1O [Example 3, (2R,3S,4S,5S,6R)-6-[4-bromo-2-(trifluoromethyl)phenoxy]-5-fluoro-2-(hydroxymethyl)tetrahydropyran-3,4-diol]		3.2 (1) ° C.
CNC(=O)c1cccc(-c2ccc(O[C@H]3O[C@H](CO)[C@@H](O)[C@H](F)[C@@H]3O)cc2)c1 [Example 11, 4′-(((2R,3R,4S,5R,6R)-4-fluoro-3,5-dihydroxy-6-(hydroxymethyl)tetrahydro-2H-pyran-2-yl)oxy)-N-methyl-[1,1′-biphenyl]-3-carboxamide]	14000 nM	2.6 (1) ° C.
Cc1cc(=O)oc2cc(O[C@H]3O[C@H](CO)[C@@H](O)[C@H](O)[C@@H]3F)ccc12 [Example 10, 7-[(2R,3S,4S,5S,6R)-3-fluoro-4,5-dihydroxy-6-(hydroxymethyl)tetrahydropyran-2-yl]oxy-4-methyl-chromen-2-one]		3.405 ± 0.105 (2) ° C.
COc1cc(Br)ccc1O[C@H]1O[C@H](CO)[C@@H](O)[C@H](O)[C@@H]1F [Example 5, (2R,3S,4S,5S,6R)-6-(4-bromo-2-methoxy-phenoxy)-5-fluoro-2-(hydroxymethyl)tetrahydropyran-3,4-diol]		1.8 (1) ° C.
CNC(=O)c1cc(-c2ccc(O[C@H]3O[C@H](CO)[C@@H](O)[C@H](O)[C@]3(C)O)c(Cl)c2)ccc1F [Compound 55]	20 ± 0.5 nM	
Cc1cc(-c2cccc(S(=O)(=O)NC(C)(C)C)c2)ccc1O[C@H]1O[C@H](CO)[C@@H](O)[C@H](O)[C@]1(C)O [Compound 86]	26 ± 8 nM	
CNC(=O)c1cccc(-c2ccc(O[C@H]3O[C@H](CO)[C@@H](O)[C@H](O)[C@]3(C)O)c(OC)c2)c1 [Example 17, 3-[3-methoxy-4-[(2R,3S,4S,5S,6R)-3,4,5-trihydroxy-6-(hydroxymethyl)-3-methyl-tetrahydropyran-2-yl]oxy-phenyl]-N-methyl-benzamide]	27 ± 8 nM	
CNC(=O)c1cccc(-c2ccc(O[C@H]3O[C@H](CO)[C@@H](O)[C@H](O)[C@]3(C)O)cc2)c1 [Example 14, N-methyl-3-[4-[(2R,3S,4S,5S,6R)-3,4,5-trihydroxy-6-(hydroxymethyl)-3-methyl-tetrahydropyran-2-yl]oxyphenyl]benzamide]	132 ± 44 nM	
CNC(=O)c1cccc(-c2ccc(O[C@H]3O[C@](C)(CO)[C@@H](O)[C@H](O)[C@@H]3O)c(C)c2)c1 [compound 26]	2370 ± 544 nM	
CNC(=O)c1cccc(-c2ccc(O[C@H]3O[C@H]([C@@H](C)O)[C@@H](O)[C@H](O)[C@@H]3O)c(C)c2)c1 [compound 29]	> 10000 nM	
COC(=O)c1cccc(-c2ccc(O[C@H]3O[C@H](CO)[C@@H](O)[C@H](O)[C@]3(C)O)c(C)c2)c1 [Compound 57]	17 ± 4 nM	
Cc1cc(-c2cccc(C(=O)O)c2)ccc1O[C@H]1O[C@H](CO)[C@@H](O)[C@H](O)[C@]1(C)O [Compound 21]	112 ± 37 nM	
CNC(=O)c1ccc(-c2cccc(O[C@H]3O[C@H](CO)[C@@H](O)[C@H](O)[C@]3(C)O)c2Cl)cc1 [Compound 47]	55 ± 29 nM	

SMILES	IC50 [1]	Delta Thermal melt [2]
COCCNC(=O)c1cccc(-c2ccc(O[C@H]3O[C@H](CO)[C@@H](O)[C@H](O)[C@]3(C)O)c(Cl)c2)c1 [Compound 53]	24 ± 6 nM	
Cc1cc(C#Cc2ccc(O[C@H]3O[C@H](CO)[C@@H](O)[C@H](O)[C@]3(C)O)c(C)c2)ccc1O[C@H]1O[C@H](CO)[C@@H](O)[C@H](O)[C@]1(C)O [Example 117, (2R,3S,4S,5S,6R)-6-(hydroxymethyl)-3-methyl-2-[2-methyl-4-[2-[3-methyl-4-[(2R,3S,4S,5S,6R)-3,4,5-trihydroxy-6-(hydroxymethyl)-3-methyl-tetrahydropyran-2-yl]oxy-phenyl]ethynyl]phenoxy]tetrahydropyran-3,4,5-triol]	15 ± 8 nM	
CNC(=O)c1cccc(-c2ccc(O[C@H]3O[C@H](CO)[C@@H](O)[C@H](O)[C@]3(C)O)c(F)c2)c1 [Example 16, 3-[3-fluoro-4-[(2R,3S,4S,5S,6R)-3,4,5-trihydroxy-6-(hydroxymethyl)-3-methyl-tetrahydropyran-2-yl]oxy-phenyl]-N-methyl-benzamide]	67 ± 18 nM	
Cc1cc(-c2ccc(-c3ccc(O[C@H]4O[C@H](CO)[C@@H](O)[C@H](O)[C@]4(C)O)c(C)c3)cc2)ccc1O[C@H]1O[C@H](CO)[C@@H](O)[C@H](O)[C@]1(C)O [Example 116, (2R,3S,4S,5S,6R)-6-(hydroxymethyl)-3-methyl-2-[2-methyl-4-[4-[3-methyl-4-[(2R,3S,4S,5S,6R)-3,4,5-trihydroxy-6-(hydroxymethyl)-3-methyl-tetrahydropyran-2-yl]oxy-phenyl]phenyl]phenoxy]tetrahydropyran-3,4,5-triol]	30 ± 13 nM	
COc1c(F)cc(F)cc1-c1ccc(O[C@H]2O[C@H](CO)[C@@H](O)[C@H](O)[C@]2(C)O)c(C)c1 [Compound 99]	38 ± 8 nM	
Cc1cc(-c2ccnc(-c3ccc(O[C@H]4O[C@H](CO)[C@@H](O)[C@H](O)[C@]4(C)O)c(C)c3)c2)ccc1O[C@H]1O[C@H](CO)[C@@H](O)[C@H](O)[C@]1(C)O [Example 122, (2R,3S,4S,5S,6R)-6-(hydroxymethyl)-3-methyl-2-[2-methyl-4-[2-[3-methyl-4-[(2R,3S,4S,5S,6R)-3,4,5-trihydroxy-6-(hydroxymethyl)-3-methyl-tetrahydropyran-2-yl]oxy-phenyl]-4-pyridyl]phenoxy]tetrahydropyran-3,4,5-triol]	0.6 ± 0.3 nM	
CNC(=O)c1cccc(-c2ccc(O[C@H]3O[C@H](CO)[C@@H](O)[C@H](O)[C@]3(C)O)cc2Cl)c1 [Compound 40]	220 ± 110 nM	
Cc1cc(-c2ccc(O[C@H]3O[C@H](CO)[C@@H](O)[C@H](O)[C@]3(C)O)c(C)c2)ccc1O[C@H]1O[C@H](CO)[C@@H](O)[C@H](O)[C@]1(C)O [Compound 105, (2R,3S,4S,5S,6R)-6-(hydroxymethyl)-3-methyl-2-[2-methyl-4-[3-methyl-4-[(2R,3S,4S,5S,6R)-3,4,5-trihydroxy-6-(hydroxymethyl)-3-methyl-tetrahydropyran-2-yl]oxy-phenyl]phenoxy]tetrahydropyran-3,4,5-triol]	6 ± 2 nM	
Cc1cc(-c2cc(-c3ccc(O[C@H]4O[C@H](CO)[C@@H](O)[C@H](O)[C@]4(C)O)c(C)c3)cc(-c3ccc(O[C@H]4O[C@H](CO)[C@@H](O)[C@H](O)[C@]4(C)O)c(C)c3)c2)ccc1O[C@H]1O[C@H](CO)[C@@H](O)[C@H](O)[C@]1(C)O [Example 118, (2R,3S,4S,5S,6R)-2-[4-[3,5-bis[3-methyl-4-[(2R,3S,4S,5S,6R)-3,4,5-trihydroxy-6-(hydroxymethyl)-3-methyl-tetrahydropyran-2-yl]oxy-phenyl]phenyl]-2-methyl-phenoxy]-6-(hydroxymethyl)-3-methyl-tetrahydropyran-3,4,5-triol]	2 ± 0.7 nM	
Cc1cc(Br)ccc1O[C@H]1O[C@H](CO)[C@@H](O)[C@H](O)[C@@H]1F [Example 1, (2R,3S,4S,5S,6R)-6-(4-bromo-2-methyl-phenoxy)-5-fluoro-2-(hydroxymethyl)tetrahydropyran-3,4-diol]		3 (1) ° C.
COc1cc(Cl)cc(-c2ccc(O[C@H]3O[C@H](CO)[C@@H](O)[C@H](O)[C@]3(C)O)c(C)c2)c1 [Compound 80]	55 ± 15 nM	
Cc1cc(-c2cc(C#N)ccc2C)ccc1O[C@H]1O[C@H](CO)[C@@H](O)[C@H](O)[C@]1(C)O [Compound 101]	1180 ± 215 nM	
CNC(=O)c1cccc(-c2ccc(O[C@H]3O[C@H](CO)[C@@H](O)[C@H](O)[C@@]3(O)Cn3cc(CO)nn3)c(C)c2)c1 [Compound 51]	7150 ± 50 nM	
COc1ccc(Cl)cc1-c1ccc(O[C@H]2O[C@H](CO)[C@@H](O)[C@H](O)[C@]2(C)O)c(C)c1 [Compound 97]	110 ± 20 nM	
CNC(=O)c1cccc(-c2ccc(O[C@H]3O[C@H](CO)[C@@H](O)[C@H](O)[C@]3(C)O)cc2F)c1 [Compound 39]	265 ± 135 nM	
